Measured values taken from patent US20090181931A1, “ANTIVIRAL ACTIVITY OF CIDOFOVIR AGAINST ONCOLYTIC VIRUSES” (priority 2008, published 2009).
Several values for one entry are separate records, joined by “and”; a condition that tells them apart may be missing. Equal values may be shown once.

What was measured:
[1] = test system: Wild-type adenovirus (OBP-202); assay: Real-time quantitative PCR, viral E1A copy number, wild-type adenovirus in H1299 cells; format: cell-based; conditions: for E1A copy number, % (relative to 0 μM) / E1A copy number/ng DNA: Wt-Ad MOI 10, H1299, 24 hours
Description: (§1) Cells were seeded in 6-well plate (2 mL/well, 2×10^5 cells/well), and incubated with 5% CO2 at 37° C.
(§2) Viruses were diluted at a MOI of 10. Medium in each well was removed, 500 μL of diluted virus solution was added to each well of the plate. Plates were incubated with 5% CO2 at 37° C. for 2 hours with gently shaking every 15 minutes. Medium was aspirated, washed with PBS twice, and replaced with fresh medium containing 2% FCS and serially diluted CDV. Cells were incubated with 5% CO2 at 37° C. for 24 hours after infection.
(§3) Cells were detached with Trypsin-EDTA, and collected by centrifuging. Total DNA was extracted using QIAamp™ DNA Mini Kit according to manufacture's instructions with some modifications: addition of 20 μL of RNaseA in each sample when adding ProK. DNA was eluted by 50˜100 μL of D. W.
(§4) Concentration of DNA was determined by measuring O.D.260. Each DNA samples was diluted by D. W. at a concentration of 5 ng/μL.
(§5) Master-mix for E1A primer was prepared using LightCycler™ Faststart DNAMaster SYBR Green™ according to Table 1. Standard DNA was prepared by serially 10 times dilution of pCRII-E1A plasmid (1×10^9, 1×10^8, 1×10^7, 1×10^6, 1×10^5, 1×10^4, and 1×10^3 copies/μL). 2 μL of Sample or Standard DNA was and 18 μL of Master mix were added into capillaries (total volume was 20 μL per capillary).
(§6) Q-PCR was performed according to the program of Table 2 (LightCycler quicksystem 350S). Results obtained here were analyzed using LightCycler softwere.

[2] = test system: TelomeScan (OBP-401); assay: Real-time quantitative PCR, viral E1A copy number, TelomeScan in H1299 cells; format: cell-based, adenovirus; conditions: for E1A copy number, % (relative to 0 uM) / E1A copy number/ng DNA: TelomeScan MOI 10, H1299, 24 hours
Description: as §1, §2, §3, §4, §5, §6

[3] = test system: Telomelysin (OBP-301); assay: XTT assay, protection from cytopathic effect of Telomelysin in A549 cells; format: cell-based, adenovirus; conditions: for Protection (%) Ave. / Protection (%): Telomelysin MOI 5, A549, 7 days; for Protection (%): single wells, dihydrate
Description: (§7) Cells frozen in liquid nitrogen were thawed in water bath at 37° C., seeded at T25 flask, and cultured at 70-90% sub-confluent monolayer. Cells were detached with trypsin, and prepared suspension at a concentration of 1.0×10^4 cells/ml.
(§8) Cells were seeded in 96 well-plate (100 μL/well, 1000 cells/well), then cultured with 5% CO2 at 37° C.
Viruses were diluted at MOI of 1 (OBP-301, OBP-202) in H1299 and 5 in A549 (PFU/cell). Medium in each well was removed, 150 μL of diluted virus solution was added to each well of the plate. 2 hours later, medium was aspirated and replaced with fresh medium containing 2% FCS and serially diluted CDV. Cells were incubated with 5% CO2 at 37° C. for 7 days after infection.
(§9) 100 μL of PBS, 50 μL of XTT labeling reagent, and 1 μL of ion coupling reagent per well of plate were mixed.
(§10) Medium in each well of plate was removed, and 150 μL of mixture prepared above was added to each well. Plate was incubated with 5% CO2 at 37° C. for 4 hours, and then calculated absorbance at 450 nm and 690 nm. Protection was determined by the formula below:
(§11) Protection(%)={OD(AdV(+):CDV(+))−OD(AdV(+):CDV(−))}/{OD(AdV(−):CDV(+))−OD(AdV(+):CDV(−))}×100.

[4] = test system: ONYX-015; assay: Real-time quantitative PCR, viral E1A copy number, ONYX-015 in H1299 cells; format: cell-based, adenovirus; conditions: for E1A copy number, % (relative to 0 uM) / E1A copy number/ng DNA: ONYX-015 MOI 10, H1299, 24 hours
Description: as §1, §2, §3, §4, §5, §6

[5] = test system: TelomeScan (OBP-401); assay: XTT assay, protection from cytopathic effect of TelomeScan (OBP-401) in H1299 cells; format: cell-based, adenovirus; conditions: for Protection (%) Ave. / Protection (%): OBP-401 MOI 0.1, H1299, 7 days; for Protection (%): single wells, dihydrate
Description: as §7, §8
Viruses were diluted at MOI of 0.1 (OBP-401) or 10 (ONYX-015) in H1299. Medium in each well was removed, 50 μL of diluted virus solution was added to each well of the plate. 2 hours later, medium was aspirated and replaced with fresh medium containing 2% FCS and serially diluted CDV. Cells were incubated with 5% CO2 at 37° C. for 7 days after infection.
as §9, §10, §11

Nc1ccn(C[C@@H](CO)OCP(=O)(O)O)c(=O)n1.O.O [CDV, 1-[(S)-3-hydroxy-2-(phosphonomethoxy)propyl]cytosine dihydrate]
E1A copy number, % (relative to 0 μM) ([1]; CDV 0.16 μM): 117.49% | E1A copy number/ng DNA ([1]; CDV 0.16 μM): 6.152E+07 copy number/ng DNA | E1A copy number, % (relative to 0 μM) ([1]; CDV 0.8 μM): 95.65% | E1A copy number/ng DNA ([1]; CDV 0.8 μM): 5.008E+07 copy number/ng DNA | E1A copy number, % (relative to 0 μM) ([1]; CDV 4 μM): 74.69% | E1A copy number/ng DNA ([1]; CDV 4 μM): 3.911E+07 copy number/ng DNA | E1A copy number, % (relative to 0 μM) ([1]; CDV 20 μM): 32.83% | E1A copy number/ng DNA ([1]; CDV 20 μM): 1.719E+07 copy number/ng DNA | E1A copy number, % (relative to 0 μM) ([1]; CDV 100 μM): 4.79% | E1A copy number/ng DNA ([1]; CDV 100 μM): 2.509E+06 copy number/ng DNA | Viral E1A copy number ([1]; wild-type AdV, H1299 cells, dose-dependent manner): reduced | E1A copy number, % (relative to 0 uM) ([2]; CDV 0.16 uM): 103.48% | E1A copy number/ng DNA ([2]; CDV 0.16 uM): 2.350E+08 copy number/ng DNA | E1A copy number, % (relative to 0 uM) ([2]; CDV 0.8 uM): 83.22% | E1A copy number/ng DNA ([2]; CDV 0.8 uM): 1.890E+08 copy number/ng DNA | E1A copy number, % (relative to 0 uM) ([2]; CDV 4 uM): 100.62% | E1A copy number/ng DNA ([2]; CDV 4 uM): 2.285E+08 copy number/ng DNA | E1A copy number, % (relative to 0 uM) ([2]; CDV 20 uM): 70.19% | E1A copy number/ng DNA ([2]; CDV 20 uM): 1.594E+08 copy number/ng DNA | E1A copy number, % (relative to 0 uM) ([2]; CDV 100 uM): 21.83% | E1A copy number/ng DNA ([2]; CDV 100 uM): 4.957E+07 copy number/ng DNA | Viral E1A copy number ([2]; TelomeScan, H1299 cells, dose-dependent manner): reduced | Telomelysin-mediated cytopathic effect ([3]; A549 cells, FIG. 1A): apparently inhibited | Protection (%) Ave. ([3]; CDV 10 μM): 1.376% | Protection (%) ([3]; CDV 10 μM): 1.991% and 0.387% and 1.136% | Protection (%) Ave. ([3]; CDV 20 μM): 7.535% | Protection (%) ([3]; CDV 20 μM): 7.548% and 4.342% and 7.388% and 10.862% | Protection (%) Ave. ([3]; CDV 30 μM): 40.094% | Protection (%) ([3]; CDV 30 μM): 41.269% and 33.413% and 44.208% and 41.483% | Protection (%) Ave. ([3]; CDV 40 μM): 56.713% | Protection (%) ([3]; CDV 40 μM): 61.951% and 52.118% and 53.881% and 58.904% | Protection (%) Ave. ([3]; CDV 50 μM): 61.202% | Protection (%) ([3]; CDV 50 μM): 69.539% and 54.148% and 62.592% and 58.530% | Protection (%) Ave. ([3]; CDV 60 μM): 67.295% | Protection (%) ([3]; CDV 60 μM): 68.310% and 63.768% and 66.440% and 70.661% | Protection (%) Ave. ([3]; CDV 70 μM): 62.538% | Protection (%) ([3]; CDV 70 μM): 66.226% and 58.424% and 61.844% and 63.661% | Protection (%) Ave. ([3]; CDV 80 μM): 56.740% | Protection (%) ([3]; CDV 80 μM): 54.790% and 51.637% and 59.279% and 61.256% | Protection (%) Ave. ([3]; CDV 90 μM): 49.806% | Protection (%) ([3]; CDV 90 μM): 51.423% and 50.514% and 50.942% and 46.346% | Protection (%) Ave. ([3]; CDV 100 μM): 38.090% | Protection (%) ([3]; CDV 100 μM): 33.948% and 41.590% and 36.834% and 39.987% | EC50 ([3]; Telomelysin, A549 cells, XTT, read-out: EC50, CDV concentration that archive the protection to 50%): 35.9 µM | E1A copy number, % (relative to 0 uM) ([4]; CDV 0.16 uM): 86.98% | E1A copy number/ng DNA ([4]; CDV 0.16 uM): 2.291E+07 copy number/ng DNA | E1A copy number, % (relative to 0 uM) ([4]; CDV 0.8 uM): 91.04% | E1A copy number/ng DNA ([4]; CDV 0.8 uM): 2.398E+07 copy number/ng DNA | E1A copy number, % (relative to 0 uM) ([4]; CDV 4 uM): 83.71% | E1A copy number/ng DNA ([4]; CDV 4 uM): 2.205E+07 copy number/ng DNA | E1A copy number, % (relative to 0 uM) ([4]; CDV 20 uM): 45.10% | E1A copy number/ng DNA ([4]; CDV 20 uM): 1.188E+07 copy number/ng DNA | E1A copy number, % (relative to 0 uM) ([4]; CDV 100 uM): 11.20% | E1A copy number/ng DNA ([4]; CDV 100 uM): 2.950E+06 copy number/ng DNA | Viral E1A copy number ([4]; ONYX-015, H1299 cells, dose-dependent manner): reduced | Protection (%) Ave. ([5]; CDV 0.01 μM): −0.229% | Protection (%) ([5]; CDV 0.01 μM): −1.063% and 0.309% and −0.240% and 0.080% | Protection (%) Ave. ([5]; CDV 0.06 μM): 0.057% | Protection (%) ([5]; CDV 0.06 μM): −0.423% and −0.514% and 1.589% | Protection (%) Ave. ([5]; CDV 0.32 μM): 0.171% | Protection (%) ([5]; CDV 0.32 μM): 0.400% and 0.674% and −0.789% | Protection (%) Ave. ([5]; CDV 1.6 μM): 1.931% | Protection (%) ([5]; CDV 1.6 μM): 3.006% and −0.057% and 2.594% and 2.183% | Protection (%) Ave. ([5]; CDV 8 μM): 0.469% | Protection (%) ([5]; CDV 8 μM): 3.280% and 0.263% and −0.743% and −0.926% | Protection (%) Ave. ([5]; CDV 40 μM): 40.926% | Protection (%) Ave. ([5]; CDV 200 μM): 15.154% | Protection (%) Ave. ([5]; CDV 1000 μM): 1.463% | Protection (%) ([5]; CDV 1000 μM): 0.446% and 0.537% and 3.554% and 1.314% | cytopathic effect induced by TelomeScan ([5]; H1299 cells, FIG. 2A): apparently inhibited
